Assay results from the supplement of paper PMC4862054.

What was measured:
Conditions in all cases: incubation time: 72 h
BT-474 = assay: normalised viability (% of control), CellTiter-Blue; higher = more viable cells (100 = DMSO, 0 = benzethonium chloride kill control)
Description: (§1)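 DSRT, CellTiter-Blue viability, 72 h incubation. Signal is normalised to DMSO and benzethonium chloride controls. Value is the normalised response at dose 1.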

BT-549 = assay: as above
Description: as §1

CAL-120 = assay: as above
Description: as §1

CAL-148 [1] = assay: as above
Description: as §1

CAL-51 [2] = assay: as above
Description: as §1

CAL-85-1 [3] = assay: as above
Description: as §1

DU-4475 [4] = assay: as above
Description: as §1

HCC1143 = assay: as above
Description: as §1

HCC1599 = assay: as above
Description: as §1

HCC1937 = assay: as above
Description: as §1

HDQ-P1 [5] = assay: as above
Description: as §1

Hs578T = assay: as above
Description: as §1

MDA-MB-231 = assay: as above
Description: as §1

MDA-MB-436 = assay: as above
Description: as §1

MDA-MB-453 [6] = assay: as above
Description: as §1

MDA-MB-468 = assay: as above
Description: as §1

MFM-223 = assay: as above
Description: as §1

SK-BR-3 = assay: as above
Description: as §1

CAL-148 [7] = assay: normalised viability (% of control), CellTiter-Blue; higher = more viable cells (about 100 = DMSO control)
Description: (§2)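 DSRT, CellTiter-Blue viability, 72 h incubation. Signal is normalised to DMSO and benzethonium chloride controls. Value is the normalised response at dose 9.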

CAL-51 [8] = assay: as above
Description: as §2

CAL-85-1 [9] = assay: as above
Description: as §2

DU-4475 [10] = assay: as above
Description: as §2

HDQ-P1 [11] = assay: as above
Description: as §2

MDA-MB-453 [12] = assay: as above
Description: as §2

| Compound | normalised viability (BT-474) [%] | normalised viability (BT-549) [%] | normalised viability (CAL-120) [%] | normalised viability (CAL-148 [1]) [%] | normalised viability (CAL-51 [2]) [%] | normalised viability (CAL-85-1 [3]) [%] | normalised viability (DU-4475 [4]) [%] | normalised viability (HCC1143) [%] | normalised viability (HCC1599) [%] | normalised viability (HCC1937) [%] | normalised viability (HDQ-P1 [5]) [%] | normalised viability (Hs578T) [%] | normalised viability (MDA-MB-231) [%] | normalised viability (MDA-MB-436) [%] | normalised viability (MDA-MB-453 [6]) [%] | normalised viability (MDA-MB-468) [%] | normalised viability (MFM-223) [%] | normalised viability (SK-BR-3) [%] | normalised viability (CAL-148 [7]) [%] | normalised viability (CAL-51 [8]) [%] | normalised viability (CAL-85-1 [9]) [%] | normalised viability (DU-4475 [10]) [%] | normalised viability (HDQ-P1 [11]) [%] | normalised viability (MDA-MB-453 [12]) [%] |
| --- | --- | --- | --- | --- | --- | --- | --- | --- | --- | --- | --- | --- | --- | --- | --- | --- | --- | --- | --- | --- | --- | --- | --- | --- |
| CC(=O)Nc1ccc(C(=O)Nc2ccccc2N)cc1 [CI-994] (0.1 nM) | 86.4 | 92.6 | 110 | 100 | 89.6 | 98.3 | 93.2 | 105 | 92.6 | 102 | 107 | 117 | 91.9 | 91.2 | 101 | 98.9 | 105 | 95.5 | – | – | – | – | – | – |
| NC(=O)Nc1cc(-c2cccc(F)c2)sc1C(=O)N[C@H]1CCCNC1 [AZD 7762] (1000 nM) | – | – | – | – | – | – | – | – | – | – | – | – | – | – | – | – | – | – | 21.4 | 8.63 | 22.8 | 0.66 | 18 | 19.6 |
| NCC(=O)CCC(=O)O [Aminolevulinic acid] (1 nM) | 108 | 91.1 | 86.6 | 109 | 107 | 99.4 | 107 | 91.7 | 85 | 79.4 | 110 | 104 | 118 | 105 | 98.8 | 103 | 96.5 | 89 | – | – | – | – | – | – |
| C[C@]12CC[C@@H]3c4ccc(O)cc4C[C@@H](CCCCCCCCC[S+]([O-])CCCC(F)(F)C(F)(F)F)[C@H]3[C@@H]1CC[C@@H]2O (stereo partly drawn) [Fulvestrant] (10000 nM) | – | – | – | – | – | – | – | – | – | – | – | – | – | – | – | – | – | – | 102 | 101 | 99.3 | 115 | 113 | 66.8 |
| N.N.[Cl][Pt][Cl] [Cisplatin] (10000 nM) | – | – | – | – | – | – | – | – | – | – | – | – | – | – | – | – | – | – | 105 | 105 | 99.5 | 112 | 110 | 97.4 |
| CC(C)Cn1cnc2c(N)nc3ccccc3c21 [Imiquimod] (1 nM) | 90.6 | 105 | 92.5 | 98.1 | 101 | 108 | 110 | 101 | 109 | 118 | 104 | 107 | 85.8 | 107 | 108 | 109 | 97 | 89.5 | – | – | – | – | – | – |
| CC(C)Cn1cnc2c(N)nc3ccccc3c21 [Imiquimod] (10000 nM) | – | – | – | – | – | – | – | – | – | – | – | – | – | – | – | – | – | – | 99 | 92 | 100 | 109 | 105 | 75.2 |
